The text below walks through data of patent publication US20190284220A1, “CRYSTAL FORM OF DAPAGLIFLOZIN INTERMEDIATE AND PREPARATION METHOD THEREFOR” (Jiangsu Hansoh Pharmaceutical Group Co., Ltd., priority 2016, published 2019).

SMILES strings stand for the structures.

The series can be described thus: Stability study of crystal form A. The format is physicochemical. The following applies: for Crystal form / Purity: 25° C. An excerpt:
Experimental Example 1 Stability Study

In the case of `CCOc1ccc(Cc2cc([C@]3(OCC)O[C@H](CO)[C@@H](O)[C@H](O)[C@H]3O)ccc2Cl)cc1` [crystal form A, (2S,3R,4S,5S,6R)-2-(4-chloro-3-(4-ethoxybenzyl)phenyl)-2-ethoxy-6-(methylhydroxy)tetrahydro-2H-pyran-3,4,5-triol], the Crystal form entry reads like this: (0 day) “Crystal form A”; (1 month) “Crystal form A”; (3 months) “Crystal form A”. The compound further showed a Purity (0 day) of 99.45%, a Purity (1 month) of 99.41% and a Purity (3 months) of 99.43%. Besides, the “Crystal form after drying” value (dried under vacuum at 50° C. for 3 hours) is reported as “not changed”. Besides, where the note is “room temperature (25° C.), 3 months”, the “Crystal form after storage” value is reported as “not changed”.
